# Measured values taken from patent US20230313318A1, “MICR[…] METHOD OF USE THEREOF” (priority 2022, published 2023).
# “And” between values parts separate entries of the source, which are not always exact repeats. Equal values may be shown once.
# System: D. immitis JYD-34 (macrocyclic lactone resistant isolate)
# Parameters: species or system Dirofilaria immitis
# Conditions: in vivo
substance,measurement,setting,value
Milbemycin oxime [MBO],"JYD-34 heartworms among recovered worms, all seven dogs in Group 4",,100%
same,Number of JYD-34 Worms,,18 and 15 and 21 and 22 and 14 and 20
same,Percentage of JYD-34 Worms,po,100%
